Reference: PubChem BioAssay (NCI)
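Dose response: 5 concentrations. Exposure: 48 h. Format: 96-well plates. Endpoint: linear interpolation; highest concentration if not reached. At the GI50, growth is halved. Definition used: TGI = concentration required for complete inhibition of growth.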

Columns and labels:
Assay in all cases: growth of human tumour cells (NCI), 48 h
LOX IMVI melanoma = tested on: LOX IMVI melanoma
MDA-MB-231 breast = tested on: MDA-MB-231 breast
HOP-92 NSCLC = tested on: HOP-92 NSCLC
OVCAR-4 ovarian = tested on: OVCAR-4 ovarian
SR leukemia = tested on: SR leukemia
786-0 renal = tested on: 786-0 renal
SNB-75 CNS = tested on: SNB-75 CNS
SF-539 CNS = tested on: SF-539 CNS
PC-3 prostate = tested on: PC-3 prostate
SNB-19 CNS = tested on: SNB-19 CNS
HCC-2998 colon = tested on: HCC-2998 colon
HOP-62 NSCLC = tested on: HOP-62 NSCLC
HL-60(TB) leukemia = tested on: HL-60(TB) leukemia
HCT-116 colon = tested on: HCT-116 colon
ACHN renal = tested on: ACHN renal
SK-MEL-5 melanoma = tested on: SK-MEL-5 melanoma
U251 CNS = tested on: U251 CNS
NCI-H522 lung = tested on: NCI-H522 lung
HCT-15 colon = tested on: HCT-15 colon
EKVX NSCLC = tested on: EKVX NSCLC
RXF 393 renal = tested on: RXF 393 renal
SK-OV-3 ovarian = tested on: SK-OV-3 ovarian
SK-MEL-28 melanoma = tested on: SK-MEL-28 melanoma
SN12C renal = tested on: SN12C renal
MALME-3M melanoma = tested on: MALME-3M melanoma
UACC-257 melanoma = tested on: UACC-257 melanoma
MDA-MB-435 = tested on: MDA-MB-435
SK-MEL-2 melanoma = tested on: SK-MEL-2 melanoma
BT-549 breast = tested on: BT-549 breast
M14 melanoma = tested on: M14 melanoma
SF-295 CNS = tested on: SF-295 CNS
OVCAR-5 ovarian = tested on: OVCAR-5 ovarian
OVCAR-3 ovarian = tested on: OVCAR-3 ovarian
CAKI-1 renal = tested on: CAKI-1 renal
T-47D breast = tested on: T-47D breast
UACC-62 melanoma = tested on: UACC-62 melanoma
A498 renal = tested on: A498 renal
IGROV1 ovarian = tested on: IGROV1 ovarian
TK-10 renal = tested on: TK-10 renal
SF-268 CNS = tested on: SF-268 CNS
K-562 leukemia = tested on: K-562 leukemia
DU-145 prostate = tested on: DU-145 prostate
UO-31 renal = tested on: UO-31 renal
RPMI-8226 leukemia = tested on: RPMI-8226 leukemia
NCI-H23 lung = tested on: NCI-H23 lung
COLO 205 colon = tested on: COLO 205 colon
SW-620 colon = tested on: SW-620 colon
MOLT-4 leukemia = tested on: MOLT-4 leukemia
CCRF-CEM leukemia = tested on: CCRF-CEM leukemia

SMILES: Cc1nnc([S-])o1.[Au+].c1ccc([PH+](c2ccccc2)c2ccccc2)cc1
- GI50 (LOX IMVI melanoma): 1630 nM
- TGI (LOX IMVI melanoma): 3000 nM
- GI50 (MDA-MB-231 breast): 1680 nM
- TGI (MDA-MB-231 breast): 3110 nM
- GI50 (HOP-92 NSCLC): 1640 nM
- TGI (HOP-92 NSCLC): 3030 nM
- GI50 (OVCAR-4 ovarian): 1590 nM
- TGI (OVCAR-4 ovarian): 2950 nM
- GI50 (SR leukemia): 1210 nM
- TGI (SR leukemia): > 100000 nM
- GI50 (786-0 renal): 1640 nM
- TGI (786-0 renal): 3000 nM
- GI50 (SNB-75 CNS): 1320 nM
- TGI (SNB-75 CNS): 2600 nM
- GI50 (SF-539 CNS): 1630 nM
- TGI (SF-539 CNS): 2990 nM
- GI50 (PC-3 prostate): 1590 nM
- TGI (PC-3 prostate): 3070 nM
- GI50 (SNB-19 CNS): 1610 nM
- TGI (SNB-19 CNS): 2980 nM
- GI50 (HCC-2998 colon): 1820 nM
- TGI (HCC-2998 colon): 3270 nM
- GI50 (HOP-62 NSCLC): 1870 nM
- TGI (HOP-62 NSCLC): 3530 nM
- GI50 (HL-60(TB) leukemia): 2990 nM
- TGI (HL-60(TB) leukemia): 9120 nM
- GI50 (HCT-116 colon): 1600 nM
- TGI (HCT-116 colon): 3010 nM
- GI50 (ACHN renal): 1710 nM
- TGI (ACHN renal): 3080 nM
- GI50 (SK-MEL-5 melanoma): 1550 nM
- TGI (SK-MEL-5 melanoma): 2940 nM
- GI50 (U251 CNS): 1500 nM
- TGI (U251 CNS): 2860 nM
- GI50 (NCI-H522 lung): 595 nM
- TGI (NCI-H522 lung): 2030 nM
- GI50 (HCT-15 colon): 1490 nM
- TGI (HCT-15 colon): 3080 nM
- GI50 (EKVX NSCLC): 1810 nM
- TGI (EKVX NSCLC): 3240 nM
- GI50 (RXF 393 renal): 1240 nM
- TGI (RXF 393 renal): 2510 nM
- GI50 (SK-OV-3 ovarian): 2280 nM
- TGI (SK-OV-3 ovarian): 4170 nM
- GI50 (SK-MEL-28 melanoma): 1510 nM
- TGI (SK-MEL-28 melanoma): 2860 nM
- GI50 (SN12C renal): 1670 nM
- TGI (SN12C renal): 3070 nM
- GI50 (MALME-3M melanoma): 1600 nM
- TGI (MALME-3M melanoma): 3060 nM
- GI50 (UACC-257 melanoma): 1570 nM
- TGI (UACC-257 melanoma): 3110 nM
- GI50 (MDA-MB-435): 1620 nM
- TGI (MDA-MB-435): 3020 nM
- GI50 (SK-MEL-2 melanoma): 1720 nM
- TGI (SK-MEL-2 melanoma): 3240 nM
- GI50 (BT-549 breast): 1580 nM
- TGI (BT-549 breast): 2950 nM
- GI50 (M14 melanoma): 1790 nM
- TGI (M14 melanoma): 3340 nM
- GI50 (SF-295 CNS): 1890 nM
- TGI (SF-295 CNS): 3500 nM
- GI50 (OVCAR-5 ovarian): 1820 nM
- TGI (OVCAR-5 ovarian): 3270 nM
- GI50 (OVCAR-3 ovarian): 1610 nM
- TGI (OVCAR-3 ovarian): 2980 nM
- GI50 (CAKI-1 renal): 1470 nM
- TGI (CAKI-1 renal): 2800 nM
- GI50 (T-47D breast): 1870 nM
- TGI (T-47D breast): 4930 nM
- GI50 (UACC-62 melanoma): 1350 nM
- TGI (UACC-62 melanoma): 2700 nM
- GI50 (A498 renal): 1570 nM
- TGI (A498 renal): 2930 nM
- GI50 (IGROV1 ovarian): 1470 nM
- TGI (IGROV1 ovarian): 2820 nM
- GI50 (TK-10 renal): 1800 nM
- TGI (TK-10 renal): 3210 nM
- GI50 (SF-268 CNS): 1620 nM
- TGI (SF-268 CNS): 3310 nM
- GI50 (K-562 leukemia): 2380 nM
- TGI (K-562 leukemia): > 100000 nM
- GI50 (DU-145 prostate): 1750 nM
- TGI (DU-145 prostate): 3260 nM
- GI50 (UO-31 renal): 1660 nM
- TGI (UO-31 renal): 3020 nM

SMILES: CCCCCCCCCCCCC/C=C/[C@H]1[C@@H](C(=O)OC)N1S(=O)c1ccc(C)cc1 (stereo not given in full)
- TGI (LOX IMVI melanoma): > 100000 nM
- TGI (RPMI-8226 leukemia): > 100000 nM
- TGI (HOP-92 NSCLC): > 100000 nM
- TGI (SR leukemia): > 100000 nM
- TGI (786-0 renal): > 100000 nM
- TGI (NCI-H23 lung): > 100000 nM
- TGI (PC-3 prostate): > 100000 nM
- TGI (COLO 205 colon): > 100000 nM
- TGI (HOP-62 NSCLC): > 100000 nM
- TGI (HL-60(TB) leukemia): 81300 nM
- TGI (HCT-116 colon): > 100000 nM
- TGI (ACHN renal): > 100000 nM
- TGI (SK-MEL-5 melanoma): > 100000 nM
- TGI (U251 CNS): > 100000 nM
- TGI (NCI-H522 lung): > 100000 nM
- TGI (SW-620 colon): > 100000 nM
- TGI (EKVX NSCLC): > 100000 nM
- TGI (MOLT-4 leukemia): > 100000 nM
- TGI (SK-MEL-28 melanoma): > 100000 nM
- TGI (MALME-3M melanoma): > 100000 nM
- TGI (UACC-257 melanoma): > 100000 nM
- TGI (MDA-MB-435): > 100000 nM
- TGI (SK-MEL-2 melanoma): > 100000 nM
- TGI (BT-549 breast): > 100000 nM
- TGI (OVCAR-3 ovarian): > 100000 nM
- TGI (T-47D breast): > 100000 nM
- TGI (CCRF-CEM leukemia): > 100000 nM
- TGI (UACC-62 melanoma): > 100000 nM
- TGI (A498 renal): > 100000 nM
- TGI (IGROV1 ovarian): > 100000 nM
- TGI (TK-10 renal): > 100000 nM
- TGI (K-562 leukemia): > 100000 nM
- TGI (DU-145 prostate): > 100000 nM
- TGI (UO-31 renal): > 100000 nM
